Values of other authors in PMC8764166, “Phenolic-Rich Plant Extracts With Antimicrobial Activity: An Alternative to Food Preservatives and Biocides?” (Frontiers in Microbiology, 2022).
Values after ≈ are worked out from the molar mass of the structure shown. Where two headings read alike, the source gives them in different places.

How the values were obtained:
Bacillus cereus = conditions: for MIC against Bacillus cereus: ref Skroza et al., 2019
Escherichia coli = conditions: for MIC against Escherichia coli: E. coli O157:H7 ATCC 43890, 2.5 10^6 cfu·ml^−1, Mueller Hinton broth, ref Pacheco-Ordaz et al., 2017
[1] = tested on: biofilms with undesirable food spoiling or foodborne pathogenic microorganisms; set-up: method as in the references listed per substance; conditions: the references listed per substance
Enterococcus faecalis = conditions: for MIC against Enterococcus faecalis: ref Adamczak et al., 2020
Pseudomonas aeruginosa = conditions: 2020
Salmonella Infantis = tested on: Salmonella Infantis; set-up: method as in Skroza et al., 2019; conditions: ref Skroza et al., 2019
L. monocytogenes = tested on: L. monocytogenes; set-up: method as in Pernin et al., 2019; conditions: ref Pernin et al., 2019
[2] = tested on: Salmonella enterica serovar Typhimurium; conditions: ref Alvarado-Martinez et al., 2020
S. aureus = conditions: up to 20% (w/w) proteins, 37°C, 15°C or 6°C; ref Bouarab-Chibane et al. (2018b)
[3] = ŽMJ 129 (clinical isolate), 10^5–10^6 cfu·ml^−1, Mueller Hinton broth, 24 h 37°C, ref Skroza et al., 2019

COC1=CC(=O)C=C(OC)C1=O [2,6-dimethoxy-1,4-benzoquinone]
MIC against S. typhimurium (Salmonella typhimurium; ref Kim et al., 2010): 32 µg/mL (≈ 190 µM) | MIC against B. cereus (Bacillus cereus; ref Kim et al., 2010): 64 µg/mL (≈ 381 µM) | MIC against S. aureus (Staphylococcus aureus; ref Kim et al., 2010): 8 µg/mL (≈ 47.6 µM) | MIC against E. coli (Escherichia coli; ref Kim et al., 2010): 32 µg/mL (≈ 190 µM)

Cc1ccc(O)c(O)c1 [4-methylcatechol]
activity against biofilms [1]: inhibit formation or to eradicate biofilms

CC(C)(C)c1ccc(O)c(O)c1 [4-tert-butylcatechol]
activity against biofilms [1]: inhibit formation or to eradicate biofilms

O=c1cc(-c2ccc(O)cc2)oc2cc(O)cc(O)c12 [Apigenin]
MIC against Enterococcus faecalis (Enterococcus faecalis): 1000 µg/mL (≈ 3700 µM) | MIC against S. aureus (Staphylococcus aureus; ref Adamczak et al., 2020): 500 to 1000 µg/mL | MIC against E. coli (Escherichia coli; ref Adamczak et al., 2020): 500 µg/mL (≈ 1850 µM) | MIC against P. aeruginosa (Pseudomonas aeruginosa; ref Adamczak et al.): 500 µg/mL (≈ 1850 µM)

Oc1cc(O)c2c(c1)O[C@H](c1ccc(O)c(O)c1)[C@H](O)C2 [Epicatechin]
MIC against Bacillus cereus (Bacillus cereus): 360 µg/mL (≈ 1240 µM) | MIC against S. aureus (Staphylococcus aureus; ref Skroza et al., 2019): 720 µg/mL (≈ 2480 µM) | MIC against Salmonella Infantis (Salmonella Infantis): 720 µg/mL (≈ 2480 µM) | MIC against E. coli (Escherichia coli; [3]): 720 µg/mL (≈ 2480 µM)

O=c1cc(-c2ccccc2)oc2ccccc12 [Flavone]
MIC against Enterococcus faecalis (Enterococcus faecalis): E. faecalis 0.5 g·L^−1 E. coli 0.5 g·L^−1 P. aeruginosa 0.5 g·L^−1 | MIC against E. coli (Escherichia coli; ref Adamczak et al., 2020): E. faecalis 0.5 g·L^−1 E. coli 0.5 g·L^−1 P. aeruginosa 0.5 g·L^−1 | MIC against P. aeruginosa (Pseudomonas aeruginosa; ref Adamczak et al.): E. faecalis 0.5 g·L^−1 E. coli 0.5 g·L^−1 P. aeruginosa 0.5 g·L^−1

O=c1c(O)c(-c2ccc(O)cc2)oc2cc(O)cc(O)c12 [Kaempferol]
MIC against E. faecalis (Enterococcus faecalis; ref del Valle et al., 2016): E. faecalis 0.1 g·L^−1 | MIC against Bacillus cereus (Bacillus cereus): 90 µg/mL (≈ 314 µM) | MIC against S. aureus (Staphylococcus aureus; ref Skroza et al., 2019): 90 µg/mL (≈ 314 µM) | MIC against Salmonella Infantis (Salmonella Infantis): 360 µg/mL (≈ 1260 µM) | MIC against E. coli (Escherichia coli; ref Adamczak et al., 2020): E. coli 0.5 g·L^−1 | MIC against E. coli (Escherichia coli; [3]): 360 µg/mL (≈ 1260 µM)

O=c1cc(-c2ccc(O)c(O)c2)oc2cc(O)cc(O)c12 [Luteolin]
MIC against Enterococcus faecalis (Enterococcus faecalis): 1000 µg/mL (≈ 3490 µM) | MIC against Bacillus cereus (Bacillus cereus): 90 µg/mL (≈ 314 µM) | MIC against S. aureus (Staphylococcus aureus; ref Adamczak et al., 2020): 500 µg/mL (≈ 1750 µM) | MIC against S. aureus (Staphylococcus aureus; ref Skroza et al., 2019): 45 µg/mL (≈ 157 µM) | MIC against P. aeruginosa (Pseudomonas aeruginosa; ref Adamczak et al.): 500 µg/mL (≈ 1750 µM)

C[C@@H]1O[C@@H](O[C@H]2[C@H](Oc3cc(O)c4c(c3)O[C@H](c3ccc(O)cc3)CC4=O)O[C@H](CO)[C@@H](O)[C@@H]2O)[C@H](O)[C@H](O)[C@H]1O [Naringin]
MIC against Enterococcus faecalis (Enterococcus faecalis): 1000 µg/mL (≈ 1720 µM) | MIC against E. coli (Escherichia coli; ref Adamczak et al., 2020): 500 µg/mL (≈ 861 µM) | MIC against P. aeruginosa (Pseudomonas aeruginosa; ref Adamczak et al.): 500 µg/mL (≈ 861 µM)

O=c1cc(-c2ccc(O)c(O)c2)oc2c([C@@H]3O[C@H](CO)[C@@H](O)[C@H](O)[C@H]3O)c(O)cc(O)c12 [Orientin]
MIC against Enterococcus faecalis (Enterococcus faecalis): 1000 µg/mL (≈ 2230 µM) | MIC against S. aureus (Staphylococcus aureus; ref Adamczak et al., 2020): 500 µg/mL (≈ 1120 µM) | MIC against E. coli (Escherichia coli; ref Adamczak et al., 2020): 500 µg/mL (≈ 1120 µM) | MIC against P. aeruginosa (Pseudomonas aeruginosa; ref Adamczak et al.): 500 µg/mL (≈ 1120 µM)

CC(C)=CCc1c(O)ccc2c1O[C@H]1c3ccc(O)cc3OC[C@@H]21 [Phaseollidin]
MIC against B. cereus (Bacillus cereus; ref Sadgrove et al., 2020): 10 µg/mL (≈ 30.8 µM) | MIC against S. aureus (Staphylococcus aureus; ref Sadgrove et al., 2020): 10 µg/mL (≈ 30.8 µM) | MIC against E. coli (Escherichia coli; ref Sadgrove et al., 2020): 20 µg/mL (≈ 61.7 µM) | MIC against P. aeruginosa (Pseudomonas aeruginosa; ref Sadgrove et al.): 20 µg/mL (≈ 61.7 µM)

O=C(O)c1ccc(O)c(O)c1 [Proto-catechuic acid]
mechanism of action against L. monocytogenes (L. monocytogenes): penetration or accumulation in the bacterial membrane of undissociated form | MIC against Bacillus cereus (Bacillus cereus): 190 µg/mL (≈ 1230 µM) | MIC against S. aureus (Staphylococcus aureus; ref Skroza et al., 2019): 380 µg/mL (≈ 2470 µM) | MIC against Salmonella Infantis (Salmonella Infantis): 380 µg/mL (≈ 2470 µM) | cell morphology [2]: morphological defects at the polar ends of bacteria | expression of virulence genes (SPI-1) [2]: downregulation of key regulatory genes | membrane permeabilization [2]: membrane permeabilization | MIC against Escherichia coli (Escherichia coli; 24 h 37°C): E. coli, 3.1 g·L^−1 | MIC against E. coli (Escherichia coli; [3]): 380 µg/mL (≈ 2470 µM)

O=C(/C=C/c1ccc(O)c(O)c1)O[C@H](Cc1ccc(O)c(O)c1)C(=O)O [Rosmarinic acid]
MIC against Enterococcus faecalis (Enterococcus faecalis): 1000 µg/mL (≈ 2780 µM) | MIC against Bacillus cereus (Bacillus cereus): S. aureus 0.45 g·L^−1 B. cereus 0.45 g·L^−1 E. coli 0.45 g·L^−1 S. Infantis 0.45 g·L^−1 | MIC against S. aureus (Staphylococcus aureus; ref Skroza et al., 2019): S. aureus 0.45 g·L^−1 B. cereus 0.45 g·L^−1 E. coli 0.45 g·L^−1 S. Infantis 0.45 g·L^−1 | MIC against Salmonella Infantis (Salmonella Infantis): S. aureus 0.45 g·L^−1 B. cereus 0.45 g·L^−1 E. coli 0.45 g·L^−1 S. Infantis 0.45 g·L^−1 | MIC against E. coli (Escherichia coli; ref Adamczak et al., 2020): 500 µg/mL (≈ 1390 µM) | MIC against E. coli (Escherichia coli; [3]): S. aureus 0.45 g·L^−1 B. cereus 0.45 g·L^−1 E. coli 0.45 g·L^−1 S. Infantis 0.45 g·L^−1 | MIC against P. aeruginosa (Pseudomonas aeruginosa; ref Adamczak et al.): 500 to 1000 µg/mL

O=C(O)c1ccccc1O [Salicylic acid]
MIC against Enterococcus faecalis (Enterococcus faecalis): 500 µg/mL (≈ 3620 µM) | MIC against Bacillus cereus (Bacillus cereus): 170 µg/mL (≈ 1230 µM) | MIC against S. aureus (Staphylococcus aureus; ref Adamczak et al., 2020): 250 to 500 µg/mL | MIC against S. aureus (Staphylococcus aureus; ref Skroza et al., 2019): 350 µg/mL (≈ 2530 µM) | MIC against Salmonella Infantis (Salmonella Infantis): 170 µg/mL (≈ 1230 µM) | MIC against E. coli (Escherichia coli; ref Adamczak et al., 2020): 250 to 500 µg/mL | MIC against E. coli (Escherichia coli; [3]): 170 µg/mL (≈ 1230 µM) | MIC against P. aeruginosa (Pseudomonas aeruginosa; ref Adamczak et al.): 500 µg/mL (≈ 3620 µM)

COc1cc(C(=O)O)cc(OC)c1O [Syringic acid]
MIC against S. typhimurium (Salmonella typhimurium; ref Phadungkit and Luanratana, 2006): S. typhimurium 0.0625 g·L^−1 | MIC against Bacillus cereus (Bacillus cereus): 250 µg/mL (≈ 1260 µM) | MIC against S. aureus (Staphylococcus aureus; ref Skroza et al., 2019): 500 µg/mL (≈ 2520 µM) | MIC against Salmonella Infantis (Salmonella Infantis): 250 µg/mL (≈ 1260 µM) | MIC against E. coli (Escherichia coli; [3]): 250 µg/mL (≈ 1260 µM)

COc1cc(C(=O)O)ccc1O [Vanillic acid]
mechanism of action against L. monocytogenes (L. monocytogenes): penetration or accumulation in the bacterial membrane of undissociated form | MIC against Salmonella typhimurium (Salmonella typhimurium; ref Pacheco-Ordaz et al., 2017): 2500 µg/mL (≈ 14900 µM) | MIC against Bacillus cereus (Bacillus cereus): 100 µg/mL (≈ 595 µM) | MIC against S. aureus (Staphylococcus aureus; ref Skroza et al., 2019): 420 µg/mL (≈ 2500 µM) | MIC against Salmonella Infantis (Salmonella Infantis): 210 µg/mL (≈ 1250 µM) | cell morphology [2]: observation of mid-division cells | membrane permeabilization [2]: membrane permeabilization | MIC against Escherichia coli (Escherichia coli; 24 h 37°C): 3400 µg/mL (≈ 20200 µM) | MIC against E. coli (Escherichia coli; [3]): 100 µg/mL (≈ 595 µM) | activity against biofilms [1]: inhibit formation or to eradicate biofilms

O=c1cc(-c2ccc(O)cc2)oc2c([C@@H]3O[C@H](CO)[C@@H](O)[C@H](O)[C@H]3O)c(O)cc(O)c12 [Vitexin]
MIC against Enterococcus faecalis (Enterococcus faecalis): 1000 µg/mL (≈ 2310 µM) | MIC against E. coli (Escherichia coli; ref Adamczak et al., 2020): 500 µg/mL (≈ 1160 µM) | MIC against P. aeruginosa (Pseudomonas aeruginosa; ref Adamczak et al.): 500 µg/mL (≈ 1160 µM)

O=C(O)/C=C/c1ccccc1 [cinnamic acid]
activity against biofilms [1]: inhibit formation or to eradicate biofilms

CN(C)c1ccc2nc3c(C(=O)O)cc(=O)c(O)c-3oc2c1 [gallocyanin]
antibacterial activity in the presence of bovine meat proteins (S. aureus): kept its bactericidal activity at 37 °C up to a 5% (w/w) protein content in the medium, but not at 15 °C or 6 °C

O=c1cc(-c2ccc(O)c(O)c2)oc2cc(O)c([C@@H]3O[C@H](CO)[C@@H](O)[C@H](O)[C@H]3O)c(O)c12 [isoorientin]
MIC against Enterococcus faecalis (Enterococcus faecalis): 1000 µg/mL (≈ 2230 µM) | MIC against S. aureus (Staphylococcus aureus; ref Adamczak et al., 2020): 500 µg/mL (≈ 1120 µM) | MIC against E. coli (Escherichia coli; ref Adamczak et al., 2020): 500 µg/mL (≈ 1120 µM) | MIC against P. aeruginosa (Pseudomonas aeruginosa; ref Adamczak et al.): 500 µg/mL (≈ 1120 µM)

O=c1cc(-c2ccc(O)cc2)oc2cc(O)c([C@@H]3O[C@H](CO)[C@@H](O)[C@H](O)[C@H]3O)c(O)c12 [isovitexin]
MIC against Enterococcus faecalis (Enterococcus faecalis): 1000 µg/mL (≈ 2310 µM) | MIC against E. coli (Escherichia coli; ref Adamczak et al., 2020): 500 µg/mL (≈ 1160 µM) | MIC against P. aeruginosa (Pseudomonas aeruginosa; ref Adamczak et al.): 500 µg/mL (≈ 1160 µM)

O=c1c(O)c(-c2ccc(O)cc2O)oc2cc(O)cc(O)c12 [morin]
activity against biofilms [1]: inhibit formation or to eradicate biofilms

O=c1c(O)c(-c2cc(O)c(O)c(O)c2)oc2cc(O)cc(O)c12 [myricetin]
activity against biofilms [1]: inhibit formation or to eradicate biofilms

O=C1C=CC(=O)c2c(O)ccc(O)c21 [naphthazarin]
antibacterial activity in the presence of bovine meat proteins (S. aureus): bactericidal at 6 °C and 15°C, unlike at 37 °C

O=C(O)c1ccc(O)cc1 [p-hydroxybenzoic acid]
mechanism of action against L. monocytogenes (L. monocytogenes): penetration or accumulation in the bacterial membrane of undissociated form

Oc1cccc(O)c1O [pyrogallol]
activity against biofilms [1]: inhibit formation or to eradicate biofilms

C[C@@H]1O[C@@H](O[C@@H]2[C@@H](O)[C@H](O)[C@@H](CO)O[C@H]2c2c(O)cc(O)c3c(=O)cc(-c4ccc(O)cc4)oc23)[C@H](O)[C@H](O)[C@H]1O [vitexin 2"-o-rhamnoside]
MIC against Enterococcus faecalis (Enterococcus faecalis): 1000 µg/mL (≈ 1730 µM) | MIC against E. coli (Escherichia coli; ref Adamczak et al., 2020): 500 µg/mL (≈ 864 µM) | MIC against P. aeruginosa (Pseudomonas aeruginosa; ref Adamczak et al.): 500 µg/mL (≈ 864 µM)
